Test results: US7608611B2, “Hsp90 inhibitors, methods of making and uses therefor” (The Regents of the University of Colorado, priority 2005, dated 2009)
Like-named read-outs stand apart in the source and are kept apart here.

Tests used:
NQO1 [1] = biological target: T1, NQO1 (Homo sapiens, UniProt P15559); experiment: Reduction of 17-AAG by rhNQO1 and NADH, HPLC analysis; type: in vitro ADME
Description: HPLC conditions: Buffer A, 50 mM ammonium acetate, pH 4 containing 10 μM D(−) penicillamine; buffer B, acetonitrile (100%). Both buffers were continuously bubbled with N2. Gradient, 20% B to 85% B over 20 min, then 85% for 4 min (flow rate of 1 ml/min). The sample injection volume was 50 μl. Liquid Chromatography-Mass Spectrometry was performed using positive ion electrospray ionization (ESI) and the mass spectra were obtained with a PE Sciex API-3000 triple quadrupole mass spectrometer (Foster City, Calif.) with a turbo ionspray source interfaced to a PE Sciex 200 HPLC system. Samples were chromatographed on a Luna C18 reverse-phase column (5 μm, 50×2 mm (Phenomenex) using a gradient elution consisting of a 2 min initial hold at 20% B followed by an increase to 80% B over 20 min at a flow rate of 0.2 ml/min and a sample injection volume of 20 μl. Buffer A, 10 mM ammonium acetate containing 0.1% (v/v) acetic acid, pH 4.4: buffer B, 10 mM ammonium acetate in acetonitrile containing 0.1% (v/v) acetic acid. The mass spectrometer settings were: turbo ionspray temperature of 250° C., spray needle voltage at 4500 V, declustering potential (DP) at 35 V and focus plate (FP) at 125 V. Mass spectra were continuously recorded from 150 to 1000 amu every 3 s during the chromatographic analysis.
Inhibition of rhNQO1 by ES936 was >98%. […]

yeast Hsp90 = yeast Hsp90 (Saccharomyces cerevisiae, UniProt P02829); type: biochemical; settings: 17-AAG, 3 hr; for inhibition of yeast Hsp90 ATPase activity in the presence of NQO1 (17-AAGH2 formed): NADH and rhNQO1
yeast Hsp90, sequence (P02829 whole entry): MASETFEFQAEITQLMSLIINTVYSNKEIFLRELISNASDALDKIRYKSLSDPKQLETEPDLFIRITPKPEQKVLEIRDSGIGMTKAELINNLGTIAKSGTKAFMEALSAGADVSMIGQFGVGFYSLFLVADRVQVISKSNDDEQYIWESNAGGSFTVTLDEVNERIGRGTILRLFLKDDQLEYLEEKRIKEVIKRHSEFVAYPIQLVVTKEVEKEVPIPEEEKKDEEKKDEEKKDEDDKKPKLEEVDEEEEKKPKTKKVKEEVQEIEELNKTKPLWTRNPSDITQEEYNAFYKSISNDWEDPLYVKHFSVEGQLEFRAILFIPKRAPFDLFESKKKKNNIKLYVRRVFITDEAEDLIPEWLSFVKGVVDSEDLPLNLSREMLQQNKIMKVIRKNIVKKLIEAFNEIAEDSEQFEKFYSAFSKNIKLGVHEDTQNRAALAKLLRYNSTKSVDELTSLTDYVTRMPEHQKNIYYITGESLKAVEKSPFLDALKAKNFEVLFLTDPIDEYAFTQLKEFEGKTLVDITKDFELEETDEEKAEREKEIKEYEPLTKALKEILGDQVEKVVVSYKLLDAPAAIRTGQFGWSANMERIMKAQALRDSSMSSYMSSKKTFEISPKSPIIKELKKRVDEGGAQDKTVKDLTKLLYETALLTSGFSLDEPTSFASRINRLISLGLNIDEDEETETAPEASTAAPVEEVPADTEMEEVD
Description: Reactions with yeast Hsp90 (top panel) were analyzed after 3 hr, while reactions with human Hsp90 (bottom panel) were analyzed after 12 hr. Phosphate concentrations were measured using the malachite green assay.
Reactions (25 μl) were started by the addition of 1 mM ATP and allowed to proceed at 37° C. for the indicated times. Reactions were then diluted with 225 μl of 100 mM Tris-HCl, pH 7.4, containing 20 mM KCl and 6 mM MgCl2 mixed thoroughly, and 80 μl was transferred to each well (96 well plate) followed by 20 μl of malachite green reagent. After 10 min 83 mM trisodium citrate was added to stabilize the color and plates were read at 650 nm.

Hsp90 = experiment: Immunoblot of Hsp90 inhibition markers (Hsp70, Raf-1, pMEK, pERK) in MDA468/NQ16 versus MDA468 cells; type: cell-based, human; settings: MDA468/NQ16 compared to MDA468 cells
Description: Results were confirmed in duplicate experiments. […] Results were confirmed in duplicate experiments.
To measure Hsp90 inhibition in these cells we analyzed Hsp70 induction and Raf-1 degradation as markers of Hsp90 inhibition (FIG. 5). […] Following drug treatment cells were washed in PBS then lysed by the addition of RIPA buffer (50 mM Tris-HCl, pH 7.4, 0.5% (v/v) NP40) containing 1 mini-protease tablet (protease inhibitor cocktail, Roche Indianapolis Ind.) and phosphatase inhibitors (30 mM NaF, 40 mM β-glycerol phosphate, 20 mM sodium pyrophosphate, 1 mM orthovanadate, 1 mM EGTA). Lysates were probe sonicated (2s) on ice then centrifuged to remove cellular debris. Protein concentrations were determined on supernatant. […] Membranes were blocked in 10 mM Tris-HCl, pH 8.0, 150 mM NaCl, 0.2% Tween-20 and 5% non-fat milk for a minimum of 1 hr at room temperature. Anti-Hsp70, anti-Raf-1, anti-MEK and anti-ERK antibodies were added for 1 hr at room temperature. Anti-phospho MEK and ERK antibodies were added overnight at 4° C. All primary antibodies were diluted 1:1,000 except actin (1:5,000). Horseradish peroxidase-labeled secondary antibodies (Jackson ImmunoResearch Labs, West Grove Pa.) were diluted 1:5000 and added for 30 min. Proteins were visualized using enhanced chemilumenscence detection.

MDA468 cells [2] = experiment: Metabolism of 17-AAG in intact MDA468 cells, HPLC; type: cell-based, human; settings: 5 μM 17-AAG, 4 hr
MDA468 cell sonicates = experiment: Reduction of 17-AAG by MDA468 cell sonicates, HPLC; type: in vitro ADME, human
MDA468/NQ16 cells [3] = settings: MTT
Description: (§2) Cells were seeded at 2×10^3 cells per well (96 well plate) in complete medium overnight.

MDA468 cells [4] = settings: read-out: IC50 growth inhibition; parental MDA468 cells, 4 hr exposure then 72 hr drug-free, MTT
Description: as §2

MDA468/NQ16 cells [5] = test system: MDA468/NQ16 cells
[6] = clinical trials, background statement; cited from earlier work
[7] = test system: MDA468/NQ16 cell sonicates; settings: NADH or NADPH
Description: The human breast cancer cell line MDA468 and the NQO1 stably transfected cell line MDA468/NQ16 (Clin. Cancer Res. 2004; 10:3147-55) were grown in RPMI-1640 containing 10% (v/v) fetal bovine serum and 1% (v/v) penicillin, streptomycin and glutamine. […] Protein concentrations were determined by the method of Lowry. […] The parental MDA468 cell lines is NQO1 null (<10 nmoles DCPIP/min/mg) due to homozygous expression of the NQO1*2 polymorphism. The stable transfection of the MDA468 cell line with human NQO1 generated the MDA468/NQ16 cell line, which has high NQO1 activity (>1,800 nmoles DCPIP/min/mg).

[8] = Stability (autoxidation) of 17-AAGH2 in solution by HPLC; type: physicochemical
Text: Results are mean, standard deviation, n=3.
During analysis HPLC buffers were continuously gassed with N2 and a copper chelator was included. […] In these studies the autoxidation of 17-AAGH2 was followed over time in an aerobic reaction.

NQO1 [9] = biological target: T1, NQO1; experiment: Inhibition of rhNQO1 by ES936; type: biochemical
Text: (§1) Inhibition of rhNQO1 by ES936 was >98%.

NQO1 [10] = biological target: T1, NQO1; experiment: Inhibition of NQO1 activity by ES936 in MDA468/NQ16 cells; type: cell-based; design: expressed in transfected cells; host or cells: MDA468/NQ16 (human breast cancer MDA468 stably transfected with human NQO1)
Text: as §1

[11] = MDA468/NQ16 cells, 5 μM 17-AAG, 4 hr

T1 sequence (P15559 whole entry): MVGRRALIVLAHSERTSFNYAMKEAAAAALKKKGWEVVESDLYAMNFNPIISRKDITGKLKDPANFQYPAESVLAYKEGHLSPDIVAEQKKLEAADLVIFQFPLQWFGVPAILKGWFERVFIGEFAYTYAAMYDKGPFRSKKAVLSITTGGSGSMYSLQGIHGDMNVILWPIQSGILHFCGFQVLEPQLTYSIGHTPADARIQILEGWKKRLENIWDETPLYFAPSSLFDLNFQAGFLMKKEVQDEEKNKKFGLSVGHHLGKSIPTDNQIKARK

## C=CCNC1=C2C[C@@H](C)C[C@H](OC)[C@H](O)[C@@H](C)/C=C(\C)[C@H](OC(N)=O)[C@@H](OC)/C=C\C=C(/C)C(=O)NC(=CC1=O)C2=O [17-AAG, 17-demethoxy-17-(2-propenylamino)-geldanamycin]
NQO1 [1]
  17-AAG detected in the form of the hydroquinone after reduction by NQO1: 90%
Yeast Hsp90
  inhibition of yeast Hsp90 ATPase activity in the presence of NQO1 (17-AAGH2 formed): substantial decrease in ATPase activity
Yeast Hsp90; NADH
  inhibition of yeast Hsp90 ATPase activity in the absence of NQO1: No inhibition
Hsp90; 17-AAG 0.5-1 μM, 8 hr
  Hsp70 induction: greater Hsp70 induction
  Raf-1 degradation: increased Raf-1 degradation
Hsp90; serum starved 24 hr, 17-AAG 8 hr
  MEK and ERK phosphorylation: decreased levels of both MEK and ERK phosphorylation
MDA468 cells [2]
  Cell viability (trypan blue exclusion assay): > 90%
  formation of 17-AAGH2 in intact cells: No 17-AAGH2 could be detected
MDA468 cell sonicates
  generation of 17-AAGH2 by cell sonicates: No 17-AAGH2 could be detected
MDA468/NQ16 cells [3]; read-out: IC50 growth inhibition after pretreatment with ES936, pretreatment with 100 nM ES936 for 30 min, 4 hr exposure then 72 hr
  IC50: 7.67 ± 1.36 µM
MDA468/NQ16 cells [3]; read-out: IC50 growth inhibition, MDA468/NQ16 cells, 4 hr exposure then 72 hr drug-free
  IC50: 0.86 ± 0.16 µM
MDA468 cells [4]
  IC50: 10.1 ± 1.07 µM
MDA468/NQ16 cells [5]; [11]
  Cell viability (trypan blue exclusion assay): > 90%
  formation of 17-AAGH2 in intact cells: 17-AAGH2 could be generated
MDA468/NQ16 cells [5]; MDA468/NQ16 compared to ES936-treated or parental MDA468 cells
  accumulation of total drug (quinone plus hydroquinone) in cells: accumulated more total drug
[6]
  hepatotoxicity / liver toxicity: do not induce liver toxicity
[7]
  generation of 17-AAGH2 by cell sonicates: readily generated 17-AAGH2

## C=CCNc1c(O)cc2c(O)c1CC(C)CC(OC)C(O)C(C)C=C(C)C(OC(N)=O)C(OC)C=CC=C(C)C(=O)N2 (stereo not shown) [17-AAGH2, 17-Demethoxy-18,21-dihydroxy-17-(2-propenylamino)-geldanamycin]
[8]; aerobic, 50 mM potassium phosphate buffer pH 7.4, 27° C.
  autoxidation of the hydroquinone back to the quinone over time: slow rate of autoxidation back to 17-AAG over a period of hours
[8]; inclusion of copper (CuSO4)
  effect of copper on 17-AAGH2 oxidation: could facilitate 17-AAGH2 oxidation
Yeast Hsp90
  inhibition of yeast Hsp90 ATPase activity in the presence of NQO1 (17-AAGH2 formed): the active Hsp90 inhibitor

## CO[C@H]1/C=C\C=C(/C)C(=O)NC2=CC(=O)C(NCCN(C)C)=C(C[C@@H](C)C[C@H](OC)[C@H](O)[C@@H](C)/C=C(\C)[C@@H]1OC(N)=O)C2=O [17-DMAG, 17-demethoxy-17-[[2-(dimethylamino)ethyl]amino]-geldanamycin]
[6]
  hepatotoxicity / liver toxicity: do not induce liver toxicity

## COC1=CC(=O)c2c(c(COc3ccc([N+](=O)[O-])cc3)c(C)n2C)C1=O [ES936, 5-methoxy-1,2-dimethyl-3-[(4-nitrophenoxy)methyl]indole-4,7-dione]
NQO1 [9]
  Inhibition of rhNQO1: > 98%
NQO1 [10]; single dose 100 nM ES936, after 4 hr, MDA468/NQ16 cells
  inhibition at 0.1 µM: > 96%
NQO1 [10]; single dose of 100 nM
  toxicity of ES936 to cells: nontoxic

## COC1=C2C[C@@H](C)C[C@H](OC)[C@H](O)[C@@H](C)/C=C(\C)[C@H](OC(N)=O)[C@@H](OC)/C=C\C=C(/C)C(=O)NC(=CC1=O)C2=O [GDM, geldanamycin]
[6]
  hepatotoxicity / liver toxicity: unacceptable hepatotoxicity
